This is an account of results in patent publication US20200157144A1, “ANTIMICROBIAL PEPTIDOMIMETICS” (priority 2017, published 2020).

The subject of assay [1] is Enterococcus faecalis ATCC 51299. The experiment in a line: microbe, parasite or virus in culture. Type of assay: cell-based. The note with it: Enterococcus faecalis, ATCC51299. On the procedure:
(§1) The antibacterial potency of Compound 34 was measured using the in vitro broth microdilution assay under assay conditions described by the Clinical and Laboratory Standards Institute. […] The test substance was dissolved in 100% DMSO (unless stated below), suspended completely by sonication or vortexing, diluted by 2-fold serial titrations in the same vehicle, for a total of 10 test concentrations (final concentrations: 100, 50, 25, 12.5, 6.25, 3.125, 1.56, 0.78, 0.39, 0.2 μM). A 4 μL aliquot of each dilution was added to 196 μL of broth medium seeded with the organism suspension in wells of a 96 well plate (bacterial count: 2-8×10^5 colony forming units/mL final). The final volume was 200 μL in each well and the final DMSO concentration was 2 percent. The incubation time is either 1 or 2 days at 36° C. All strains tested underwent aerobic respiration, except for ATCC BAA-1805 and ATCC 29399. Following incubation, the test plates were visually examined and wells were scored for growth or complete growth inhibition to define the minimum inhibitory concentration. Each test substance was evaluated in duplicate and the results below are the duplicate test values. Vehicle-control and an active reference agent were used as blank and positive controls, respectively.

In assay [2] the test system is Enterococcus faecium ATCC BAA-2320. The experiment in a line: microbe, parasite or virus in culture. The format is cell-based. As to conditions: Enterococcus faecium, ATCCBAA2320. On the procedure: as §1

Values joined by “and” are separate entries in the source; they are usually repeats but may differ in a detail not shown here. Equal entries are not always repeated.

On to `CN(C)c1cc(NC(=O)CNC(C)(C)C)c(O)c2c1C[C@H]1C[C@H]3[C@H](N(C)C)C(O)=C(C(N)=O)C(=O)[C@@]3(O)C(O)=C1C2=O` [Tigecycline], for which the MIC in assay [1] is 0.063 µg/mL and 0.11 µM; in assay [2], 0.063 µg/mL and 0.11 µM.
